In patent publication EP0259838A2, “Pharmaceutical composition containing A 1,4-dihydropyridine derivative and an acylated 1,2,3,4-tetrahydroisoquinoline-3-carboxylic acid” (priority 1986, dated 1988):

How the values were obtained:
Renal Hypertensive Rats = assay: Antihypertensive activity in renal hypertensive rats (tail-cuff systolic blood pressure and heart rate); format: in vivo, rats (Male Sprague-Dawley); details: single dose po, nicardipine 3 mg/kg, ACE inhibitor 10 mg/kg, combination 3 + 10 mg/kg, n = 6
Method: Twenty-four renal hypertensive rates (Male Sprague-Dawley, 140-170g) showing systolic blood pressure of 160 mmHg or greater were chosen for the study. Using the random block design, they were distributed into four groups: 3 groups for compound treatments and one for vehicle control. They were randomly assigned to the treatments. The test compounds were dissolved in deionized water at concentrations such that 1.0 ml of solution was administered per 100 grams of body weight.
At approximately 17 hours prior to dosing, food was removed from the rat cages. On the morning of testing, the rats were dosed with the assigned compound or vehicle by gavage. Immediately after dosing, the rats were put in restrainers and placed in a heated chamber, 30 degrees centrigrade, for four hours. After the four hour reading, the rats were returned to their home cage for 3 hours and then were put in the restrainer again for the hour 8 reading.
Using a tail blood pressure cuff, blood pressure curves and tail pulses were simultaneously monitored on a 4-channel MFE recorder digitized by a computer system. At least four consecutive traces (at 30 second intervals) were recorded for each rat at 1, 2, 4 and 8 hour post-dose.
The computer system has been programmed to find systolic blood pressure (mmHg) and heart rate (beats/min) for each recording and them calculate the mean SBP and the mean HR of each rat at each observation time. Manual editing and confirmation of the analyses were carried out by the investigator on any systolic blood pressure traces that were more than two standard deviations outside the mean blood pressure readings for that animal at a given time period.
The SBP's of the animals in each dose group were compared to the SBP's of the animals in the control group at each observation time using oneway analysis of variance. Significance was determined using the Dunnet test.

CD rats = details: rat, in vivo; cited from earlier work

SMILES	HR % Chg (Chg from Control) (Renal Hypertensive Rats; 1 Hr post-dose) [%]	HR b/min. Chg (Chg from Control) (Renal Hypertensive Rats; 1 Hr post-dose) [b/min.]	SBP % Chg (Chg from Control) (Renal Hypertensive Rats; 1 Hr post-dose) [%]	SBP mmHg Chg (Chg from Control) (Renal Hypertensive Rats; 1 Hr post-dose) [mmHg]	HR % Chg (Chg from Control) (Renal Hypertensive Rats; 2 Hr post-dose) [%]	HR b/min. Chg (Chg from Control) (Renal Hypertensive Rats; 2 Hr post-dose) [b/min.]	SBP % Chg (Chg from Control) (Renal Hypertensive Rats; 2 Hr post-dose) [%]	SBP mmHg Chg (Chg from Control) (Renal Hypertensive Rats; 2 Hr post-dose) [mmHg]	HR % Chg (Chg from Control) (Renal Hypertensive Rats; 4 Hr post-dose) [%]	HR b/min. Chg (Chg from Control) (Renal Hypertensive Rats; 4 Hr post-dose) [b/min.]	SBP % Chg (Chg from Control) (Renal Hypertensive Rats; 4 Hr post-dose) [%]	SBP mmHg Chg (Chg from Control) (Renal Hypertensive Rats; 4 Hr post-dose) [mmHg]	HR % Chg (Chg from Control) (Renal Hypertensive Rats; 8 Hr post-dose) [%]	HR b/min. Chg (Chg from Control) (Renal Hypertensive Rats; 8 Hr post-dose) [b/min.]	SBP % Chg (Chg from Control) (Renal Hypertensive Rats; 8 Hr post-dose) [%]	SBP mmHg Chg (Chg from Control) (Renal Hypertensive Rats; 8 Hr post-dose) [mmHg]	clinical sign noted previously in studies in rats (CD rats)
CCOC(=O)[C@H](CCc1ccccc1)N[C@@H](C)C(=O)N1Cc2cc(OC)c(OC)cc2C[C@H]1C(=O)O [2-{2-[(1-ethoxycarbonyl)-3-phenylpropyl]amino}-1-oxopropyl-1,2,3,4-tetrahydro-6,7-dimethoxy-3-isoquinoline carboxylic acid]	29	87	-8	-14	4	11	-7	-13	4	10	3	4	-11	-33	-7	-12	
COC(=O)C1=C(C)NC(C)=C(C(=O)OCCN(C)Cc2ccccc2)C1c1cccc([N+](=O)[O-])c1 (stereo not drawn) [nicardipine, 2,6-dimethyl-4-(3ʹ-nitrophenyl)-1,4-dihydropyridine-3,5-dicarboxylic acid-3-methyl ester-5-β-(N-benzyl-N-methylamino)-ethyl ester]	22	65	-3	-5	10	30	-4	-7	9	25	-6	-10	-2	-4	-20	-35	pink skin (peripheral vasodilation)
